Test results from patent publication US5374772A, “Substituted benzoic acids, inhibitors of phospholipases A2” (Hoffmann-LaRoche Inc., priority 1993, dated 1994).

Experiments:
[1] = biological target: T1, HSF-PLA2 (extracellular PLA2 obtained from human synovial fluid) (Homo sapiens, UniProt P14555); assay: Assay for Inhibition of HSF-PLA2 In Vitro; assay type: biochemical; settings: given as 50 % inhibition at the given concentration; 14C-oleate-labelled E. coli substrate, pH 7.3, 37° C., 30 minutes; read-out: % Inhib of HSF-PLA2: 50 (concentration) = IC50 (μM concentration that produces 50% inhibition of PLA2 activity)
T1 construct: extracellular enzyme obtained from human synovial fluid; from tissue; host or cells: pooled human synovial fluid (0.1% v/v in the assay)
T1 sequence (P14555 21-144): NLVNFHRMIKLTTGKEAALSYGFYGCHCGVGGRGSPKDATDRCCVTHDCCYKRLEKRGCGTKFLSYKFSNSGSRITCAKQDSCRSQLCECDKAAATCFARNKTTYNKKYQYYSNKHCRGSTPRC
Description: The PLA2 used in this test is the extracellular enzyme obtained from human synovial fluid (HSF-PLA2). The assay for HSF-PLA2 activity was a modification of the described method [Franson R., Dobrow R., Weiss, J., Elsbach P., and […]. Lipid Res., 19, 18-23 (1978)] which was conducted using [1-^14 C]-oleate-labelled E. coli substrate in excess at a final concentration of 20,000 dpm/ml. This was equivalent to 18.2 mM of cell membrane phospholipid phosphorus and 2×10^9 autoclaved E. coli/ml. The optimal conditions which were developed for the assay of HSF-PLA2 inhibitors are summarized as follows. […] The reaction was terminated by the addition of 2.5 ml of chloroform-methanol (1 to 1.5, v/v). The extraction of lipids from the stopped reaction mixture was conducted by the further additions of 0.5 ml of chloroform and 1 ml of water with mixing. […] The extracted lipid residue was redissolved in […] of a solution containing carrier oleic acid (0.2 mg/ml) of […]]). […] This TLC system rapidly (6 minutes) resolved the enzymatically released product, ^14 C-oleic acid, from the unreacted ^14 C-phospholipid substrate. The unsaturated lipids were located on the chromatogram by a brief exposure to iodine vapor. The oleic acid zone (Rf value 0.95) and phospholipid zone (origin) were cut out, chopped into small pieces, shaken with 2 ml of ethanol-water (80 to 20, v/v) and 15 ml of Aquasol and counted for radioactivity. A control incubation of substrate in the absence of HSF-PLA2 was performed in each experiment. The PLA2 activity of the human synovial fluid was corrected for this small control value. […] The specific activity of PLA2 in the pooled human synovial fluid under the optimal assay conditions was 49.2 nmoles [1-^14 C]-oleic acid released hour^-1 mg^-1. The IC50 (μM concentration of test compound that produces 50% inhibition of PLA2 activity) was determined for each test compound.

[2] = tested on: croton oil-induced mouse ear edema; assay: Croton Oil Mouse Ear Edema Test; assay type: in vivo, male CD-1 mice; settings: 1 mg topical, coapplied with croton oil, ear punch weight at 6 hours
Description: The croton oil-induced mouse ear edema test, a model of irritant-induced contact dermatitis, has been used for evaluation of the PLA2 inhibitors by the topical route of administration. This test was carried out as described in the following references:
The major active ingredient in croton oil is the tumor promoter 12-O-tetradecanoylphorbol-13-acetate (TPA) and the topical application of TPA to mouse skin has been reported to cause an increase in epidermal PGE2 production as well as an increase in epidermal cell membrane PLA2 activity. Indomethacin, an inhibitor of prostaglandin synthesis, prevented the TPA-mediated increase in epidermal PGE2 levels as well as the TPA-mediated induction of epidermal cell ornithine decarboxylase. Furthermore, the application of PGE2 to mouse skin countered the inhibitory effect of indomethacin upon TPA-stimulated cellular proliferation.
Twenty five μl of a 1% croton oil solution [dissolved in a mixture of pyridine/water/diethyl ether at a ratio of 5/20/75 (croton oil vehicle)] are applied to the outer side of the right ear of 3-4 week old male CD-1 mice (8 animals per group). The test compounds are dissolved directly in the 1% croton oil solution at various concentrations and coapplied. Control animals receive 25 μl of croton oil vehicle on the right ear. Biopsy punches are removed at 6 hours from the fight ear of the animals using a 6 mm skin trephine (Roboz, Washington, D.C.) and the wet weight of the ear punches is determined. The weight of the biopsy punches is a measure of ear inflammation, primarily edema. The data are expressed as percent inhibition relative to control groups.
Statistical analysis of the mean edema values of the control versus the treated groups is performed using Student's t-test. The significance of changes from the mean value for vehicle-treated (control) animals in the following Tables is indicated as follows: *p<0.05, **p<0.01, ***p<0.005,ns/not significant.

[3] = tested on: myeloperoxidase (MPO) activity, indicator of neutrophil infiltration; assay: TPA mouse ear test, myeloperoxidase activity in ear punches; assay type: in vivo, male CD-1 mice; settings: 0.3 mg topically
Description: (§1) For this test, 10 μl of 12-O-tetradecanoylphorbol-13-acetate (TPA), dissolved in a vehicle of pyridine: water: diethyl ether (20:5:75), was applied to the outside of the right ear of 3-4 week old male CD-1 mice (8 animals per group). The test compounds were dissolved in the same vehicle and 10 μl was applied to the inside of the same ear 30 minutes prior to the application of TPA. Ear punches (6 mm) were removed at 6 hours after TPA application, weighed and assayed for myeloperoxidase (MPO) activity as described in the following reference: P. P. Bradley, D. A. Priebat, R. D. Christensen and G. Rothstein, J. Invest. Dermatology 78, 206-209 (1982). The wet weight of the ear biopsy punches is a measure of the ear edema and the level of MPO activity in the ear punches is an indicator of neutrophil infiltration. The data are expressed as percent inhibition of drug-treatedanimals relative to the control group.

[4] = tested on: TPA-induced mouse ear edema; assay: TPA Induced Mouse Ear Edema Test (ear punch weight); assay type: in vivo, male CD-1 mice; settings: Mus musculus; 0.3 mg topical, 30 minutes prior to TPA, ear punch weight at 6 hours; read-out: % Inhib of TPA Mouse Ear Edema (0.3 mg)
Description: as §1, with “The TPA-induced mouse ear edema test, a model of irritant-induced contact dermatitis is described in the following reference: J. M. Young, B. M. Wagner and […]. Invest. Dermatology 80, 48-52 (1983). For” for “For”, “[…].” for “D. A. Priebat, R. D.”, “drug-[…]” for “drug-treatedanimals”

[5] = tested on: myeloperoxidase in colonic mucosa; assay: Acetic Acid-Induced Colitis in Rats; assay type: in vivo, Male rats (Sprague-Dawley); settings: 10 mg/kg orally
Source text: The rat acetic acid-induced colitis bioassay has been described by J. E. Krawisz, et al. in Amer. J. Proc. Gastro. Col. Rec. Surg. 31:11-18 (1980), and by P. Sharon and W. F. Stenson in Gastroenterology 88, 55-63 (1985) and 86, 453-460 (1984). Acetic acid-induced colitis is characterized by the movement of inflammatory cells into the colon, ,with the number of such cells in the mucosa being measured by the activity of myeloperoxidase, a marker enzyme for these cells. Positive desirable activity is indicated by a reduction in the high levels of myeloperoxidase caused by acetic acid. Male rats (Sprague-Dawley), weighing 150 to 300 g, were pretreated twice daily for two days with either the vehicle (water or dimethylsulfoxide) or the test inhibitor compound suspended in water or dissolved in dimethylsulfoxide and orally administered. […] The colonic mucosa was surgically removed and homogenized in an aqueous buffer at pH 6 with a Tissumizer or similar device and myeloperoxidase was measured in the homogenate using o-phenylenediamine as a chromagen, as described by A. Voller, D. E. Bidwell and A. Bartlett in "The Enzyme Linked Immunosorbent Assay (ELISA)", Zoological Soc., London, 1979, pages 29-30. […]

IC50 [1]: 1.1 µM
SMILES: CCCCCCCCCCCCCCCCCCOc1cc(OCCCCCCc2cccc(O)c2O)cc(C(=O)O)c1 [Example 19, 3-[[6-(2,3-Dihydroxyphenyl)hexyl]oxy]-5-(octadecyloxy) benzoic acid]
% Inhib of Croton Oil Mouse Ear Edema (1 mg) [2]: 76%
% Inhib of myeloperoxidase in the TPA mouse ear test [3]: 94%
inhibition in vivo at 0.3 mg [4]: 55%
inhibition of myeloperoxidase (acetic acid-induced colitis) [5]: 56±17%
